Laboratory results: the supplement of paper PMC10307832

Tests used:
Assay in all cases: relative viability (nuclei count vs DMSO), 5 days (fraction); higher = more cells survive
Doramapimod + Dasatinib = compound: Cc1ccc(-n2nc(C(C)(C)C)cc2NC(=O)Nc2ccc(OCCN3CCOCC3)c3ccccc23)cc1 [Doramapimod] + Cc1nc(Nc2ncc(C(=O)Nc3c(C)cccc3Cl)s2)cc(N2CCN(CCO)CC2)n1 [Dasatinib] (partner 0.075 µM)
In short: (§1)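 The day after seeding in 1536-well plates, lung cancer cell lines were treated by pin tool with a single drug, or with a fixed anchor-drug dose together with five library-drug doses (not always all listed) in √10 steps. After 5 days, a combined fix-and-stain solution (final 0.05% Triton X-100, 1% formaldehyde, 1 ug/ml Hoechst) was added. Nuclei counted on 4× images gave relative viability as treated counts over vehicle counts, reported as the median of duplicate plates.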

RAF265 + Alpelisib = compound: Cn1c(Nc2ccc(C(F)(F)F)cc2)nc2cc(Oc3ccnc(-c4ncc(C(F)(F)F)[nH]4)c3)ccc21 [RAF265] + Cc1nc(NC(=O)N2CCC[C@H]2C(N)=O)sc1-c1ccnc(C(C)(C)C(F)(F)F)c1 [Alpelisib] (partner 2 µM)
In short: as §1

RAF265 + Decitabine = compound: Cn1c(Nc2ccc(C(F)(F)F)cc2)nc2cc(Oc3ccnc(-c4ncc(C(F)(F)F)[nH]4)c3)ccc21 [RAF265] + Nc1ncn([C@H]2C[C@H](O)[C@@H](CO)O2)c(=O)n1 [Decitabine] (partner 2 µM)
In short: as §1

RAF265 + Vorinostat = compound: Cn1c(Nc2ccc(C(F)(F)F)cc2)nc2cc(Oc3ccnc(-c4ncc(C(F)(F)F)[nH]4)c3)ccc21 [RAF265] + O=C(CCCCCCC(=O)Nc1ccccc1)NO [Vorinostat] (partner 1 µM)
In short: as §1

UMC-11
relative viability (Doramapimod + Dasatinib; first compound 0.02 µM): 0.435 | relative viability (Doramapimod + Dasatinib; first compound 0.06325 µM): 0.447 | relative viability (Doramapimod + Dasatinib; first compound 0.2 µM): 0.46 | relative viability (Doramapimod + Dasatinib; first compound 0.6325 µM): 0.52 | relative viability (Doramapimod + Dasatinib; first compound 2 µM): 0.368 | relative viability (RAF265 + Alpelisib; first compound 0.01 µM): 0.972 | relative viability (RAF265 + Alpelisib; first compound 0.03162 µM): 0.981 | relative viability (RAF265 + Alpelisib; first compound 0.1 µM): 0.969 | relative viability (RAF265 + Alpelisib; first compound 0.3162 µM): 1.14 | relative viability (RAF265 + Alpelisib; first compound 1 µM): 0.937 | relative viability (RAF265 + Decitabine; first compound 0.01 µM): 0.621 | relative viability (RAF265 + Decitabine; first compound 0.03162 µM): 0.404 | relative viability (RAF265 + Decitabine; first compound 0.1 µM): 0.621 | relative viability (RAF265 + Decitabine; first compound 0.3162 µM): 0.604 | relative viability (RAF265 + Decitabine; first compound 1 µM): 0.363 | relative viability (RAF265 + Vorinostat; first compound 0.01 µM): 0.458 | relative viability (RAF265 + Vorinostat; first compound 0.03162 µM): 0.4 | relative viability (RAF265 + Vorinostat; first compound 0.1 µM): 0.343 | relative viability (RAF265 + Vorinostat; first compound 0.3162 µM): 0.357 | relative viability (RAF265 + Vorinostat; first compound 1 µM): 0.32
